Where two headings read alike, the source gives them in different places.
How the values were obtained:
[1] = test system: influenza strain A/VN/1203/2004 (H5N1); assay: microbe, parasite or virus in culture; format: cell-based, Influenza A virus (H5N1)
[2] = test system: Madin Darby Canine Kidney (MDCK) cells; assay: cells; format: cell-based; conditions: read-out: IC50 (toxicity)
[3] = Influenza A virus, H5N1, MDCK, 72 h, read-out: H5N1 EC50 (@ 50% Via)
[4] = Influenza A virus, H5N1, MDCK, 72 h, read-out: H5N1 EC50 (Inf Pt)
[5] = read-out: H5N1 EC50 (@ 50% Via)

Nc1ccc(C2NC(=O)NC3=C2CCc2ccccc23)cc1 (centres unmarked) [compound 22350] gave an EC50 [1, 3] of 30.6 µM, an EC50 [1, 4] of 17.9 µM and an IC50 ([2]; Canis lupus familiaris, MDCK) of over 50 µM.
Work on COc1ccc(C2NC(=O)NC3=C2CCN(C(=O)COC(C)=O)c2ccccc23)cc1Br (centres unmarked) [28002A] yielded an EC50 [1, 3] of over 20 µM.
Work on Cc1ccc(-c2nc(=O)[nH]c3c2Cc2ccccc2-3)cc1 [compound 22084] yielded an EC50 [1, 3] of over 50 µM and an IC50 ([2]; Canis lupus familiaris, MDCK) of over 50 µM.
In the case of O=C1NC2=C(CCCc3ccccc32)C(c2ccc3c(c2)OCO3)N1 (centres unmarked) [compound 22117], the EC50 [1, 3] is reported as 4.8 µM, the EC50 [1, 4] is reported as 2.9 µM and the EC50 [1, 5] is reported as 6.8 µM. For the same molecule, the EC50 ([1]; read-out: H5N1 EC50 (Inf Pt)) was 4 µM and the IC50 ([2]; Canis lupus familiaris, MDCK) was over 50 µM.
Molecule COc1ccc(C2NC(=O)NC3=C2Cc2ccccc23)cc1 (centres unmarked) [compound 22127] has an EC50 [1, 3] of over 50 µM, an EC50 [1, 4] of over 50 µM and an IC50 ([2]; Canis lupus familiaris, MDCK) of over 50 µM.
With Cc1ccc(C2NC(=O)NC3=C2CCc2ccccc23)cc1C (centres unmarked) [compound 22082] the IC50 ([2]; Canis lupus familiaris, MDCK) was over 50 µM.
With CCOC(=O)CCC(=O)N1CC2=C(NC(=O)NC2c2ccc(OC)c(Br)c2)c2ccccc21 (centres unmarked) [compound 25484] the EC50 [1, 3] was over 20 µM.
Work on COCCOC(=O)N1CC2=C(NC(=O)NC2c2ccc(OC)c(Br)c2)c2ccccc21 (centres unmarked) [compound 25576] yielded an EC50 [1, 3] of over 20 µM.
For Oc1nc(-c2ccc3c(c2)OCO3)c2c(n1)-c1ccccc1CC2 [compound 22085], the EC50 [1, 5] was under 0.48 µM and the IC50 ([2]; Canis lupus familiaris, MDCK) was over 50 µM.
With COc1ccc(C2NC(=O)NC3=C2CN(C(=O)CNCCN2CCOCC2)c2ccccc23)cc1Br (centres unmarked) [compound 25011] the EC50 [1, 3] was 3.9 µM, the EC50 [1, 4] was 3.9 µM and the IC50 ([2]; Canis lupus familiaris, MDCK) was over 40 µM.
For CCN(CC)CC(=O)N1CC2=C(NC(=O)NC2c2ccc(OC)c(Br)c2)c2ccccc21 (centres unmarked) [compound 24719], the EC50 [1, 3] was 1.2 µM, the EC50 [1, 4] was 1.2 µM and the IC50 ([2]; Canis lupus familiaris, MDCK) was over 40 µM.
With CCOC(=O)CCC(=O)N1CC2=C(NC(=O)NC2c2ccc(OC)c(Br)c2)c2ccccc21 (centres unmarked) [compound 25578] the EC50 [1, 4] was over 10 µM and the EC50 [1, 5] was over 20 µM.
With COc1ccc(C2NC(=O)NC3=C2CN(C)c2ccccc23)cc1Br (centres unmarked) [compound 23101] the EC50 [1, 3] was over 6 µM, the EC50 [1, 4] was over 6 µM and the IC50 ([2]; Canis lupus familiaris, MDCK) was over 40 µM.
COc1ccc(C2NC(=O)NC3=C2CN(S(C)(=O)=O)c2ccccc23)cc1Br (centres unmarked) [compound 23207] was tested, and the EC50 [1, 3] was 29 µM, the EC50 [1, 4] was 31 µM and the IC50 ([2]; Canis lupus familiaris, MDCK) was over 40 µM.
COc1ccc(C2NC(=O)NC3=C2CN(C(=O)C[n+]2ccccc2)c2ccccc23)cc1Br (centres unmarked) [compound 25009] showed an EC50 [1, 3] of 7.1 µM, an EC50 [1, 4] of 7.1 µM and an IC50 ([2]; Canis lupus familiaris, MDCK) of over 40 µM.
COc1ccc(C2NC(=O)NC3=C2CCc2ccccc23)cc1O (centres unmarked) [compound 22407] gave an EC50 [1, 3] of over 50 µM, an EC50 [1, 4] of over 50 µM and an IC50 ([2]; Canis lupus familiaris, MDCK) of over 50 µM.
Molecule COc1ccc(C2NC(=O)NC3=C2CCc2ccccc23)c(OC)c1OC (centres unmarked) [compound 22410] has an EC50 [1, 3] of over 50 µM, an EC50 [1, 4] of over 50 µM and an IC50 ([2]; Canis lupus familiaris, MDCK) of over 50 µM.
Nc1cccc(C2NC(=O)NC3=C2CCc2ccccc23)c1 (centres unmarked) [compound 22348] gave an EC50 [1, 3] of over 50 µM, an EC50 [1, 4] of over 50 µM and an IC50 ([2]; Canis lupus familiaris, MDCK) of over 50 µM.
Cc1cc(C2NC(=O)NC3=C2CCc2ccccc23)cc(C)c1O (centres unmarked) [compound 22705] gave an EC50 [1, 3] of over 40 µM, an EC50 [1, 4] of 10 µM and an IC50 ([2]; Canis lupus familiaris, MDCK) of over 40 µM.
COc1ccc(-c2nc(=O)[nH]c3c2CCc2ccccc2-3)cc1Br [compound 22710] was tested, and the EC50 [1, 3] was over 50 µM, the EC50 [1, 4] was over 50 µM and the IC50 ([2]; Canis lupus familiaris, MDCK) was over 50 µM.
With COc1cc(OC)cc(C2NC(=O)NC3=C2CCc2ccccc23)c1 (centres unmarked) [compound 22518] the EC50 [1, 3] was 4.7 µM, the EC50 [1, 4] was 3.4 µM and the IC50 ([2]; Canis lupus familiaris, MDCK) was over 50 µM.
In the case of Oc1nc(-c2ccc3c(c2)OCO3)c2c(n1)-c1ccccc1CC2 [compound 22122], the EC50 [1, 4] is reported as over 50 µM, the EC50 [1, 5] is reported as over 50 µM and the IC50 [2] is reported as over 50 µM.
COc1cccc2c1CCc1c(-c3ccc(C)cc3)nc(O)nc1-2 [compound 22124] showed an EC50 [1, 4] of over 50 µM, an EC50 [1, 5] of over 50 µM and an IC50 [2] of over 50 µM.
With Cc1ccc(-c2nc(O)nc3c2COc2ccccc2-3)cc1C [compound 22106] the EC50 [1, 3] was over 50 µM, the EC50 [1, 4] was over 50 µM and the IC50 ([2]; Canis lupus familiaris, MDCK) was over 50 µM.
COc1cc(C2NC(=O)NC3=C2CCc2ccccc23)cc(OC)c1OC (centres unmarked) [compound 22115] gave an EC50 [1, 3] of over 50 µM, an EC50 [1, 4] of over 50 µM and an IC50 ([2]; Canis lupus familiaris, MDCK) of over 50 µM.
With Oc1nc(-c2ccc3c(c2)OCO3)c2c(n1)-c1ccccc1CCC2 [compound 22118] the EC50 [1, 3] was over 50 µM, the EC50 [1, 4] was over 50 µM and the IC50 ([2]; Canis lupus familiaris, MDCK) was over 50 µM.
With COc1ccc2c(c1)CCC1=C2NC(=O)NC1c1ccc2c(c1)OCO2 (centres unmarked) [compound 22344] the EC50 [1, 3] was over 50 µM, the EC50 [1, 4] was over 50 µM and the IC50 ([2]; Canis lupus familiaris, MDCK) was over 50 µM.
COc1cccc(-c2nc(O)nc3c2COc2ccccc2-3)c1 [compound 22108] showed an EC50 [1, 3] of over 50 µM, an EC50 [1, 4] of over 50 µM and an IC50 ([2]; Canis lupus familiaris, MDCK) of over 50 µM.
COc1ccc(C2NC(=O)Nc3c2cnc2ccccc32)cc1Br (centres unmarked) [compound 23273] gave an EC50 [1, 3] of 2.1 µM, an EC50 [1, 4] of 1.6 µM and an IC50 ([2]; Canis lupus familiaris, MDCK) of over 40 µM.
Work on O=C1NC2=C(CCc3ccccc32)C(c2ccc(Cl)c(Cl)c2)N1 (centres unmarked) [compound 22130] yielded an IC50 ([2]; Canis lupus familiaris, MDCK) of over 50 µM.
In the case of Cc1cccc(-c2nc(O)nc3c2COc2ccccc2-3)c1 [compound 22110], the EC50 [1, 3] is reported as 10.4 µM, the EC50 [1, 4] is reported as 8.6 µM and the IC50 ([2]; Canis lupus familiaris, MDCK) is reported as over 50 µM.
COc1ccc(C2NC(=O)N(O)C3=C2CCc2ccccc23)cc1Br (centres unmarked) [compound 22708] showed an EC50 [1, 3] of 1.1 µM, an EC50 [1, 4] of over 0.95 µM and an IC50 ([2]; Canis lupus familiaris, MDCK) of over 50 µM.
Molecule COc1cccc(-c2nc(O)nc3c2CCc2c(OC)cccc2-3)c1 [compound 22112] has an EC50 [1, 3] of over 50 µM, an EC50 [1, 4] of over 50 µM and an IC50 ([2]; Canis lupus familiaris, MDCK) of over 50 µM.
Nc1nc(-c2ccc3c(c2)OCO3)c2c(n1)-c1ccccc1CC2 [compound 22120] was tested, and the EC50 [1, 3] was over 50 µM, the EC50 [1, 4] was over 50 µM and the IC50 ([2]; Canis lupus familiaris, MDCK) was over 50 µM.
For COc1ccc(C2NC(=O)NC3=C2CN(C(=O)OCCO)c2ccccc23)cc1Br (centres unmarked) [compound 25575], the EC50 [1, 3] was 4.7 µM.
With Cc1cccc(C2NC(=O)NC3=C2CCCc2ccccc23)c1 (centres unmarked) [compound 22345] the EC50 [1, 3] was 18.8 µM, the EC50 [1, 4] was 13.6 µM and the IC50 ([2]; Canis lupus familiaris, MDCK) was over 50 µM.
Molecule COc1cccc(C2NC(=O)NC3=C2CCc2c(OC)cccc23)c1 (centres unmarked) [compound 22111] has an EC50 [1, 3] of over 50 µM, an EC50 [1, 4] of over 50 µM and an IC50 ([2]; Canis lupus familiaris, MDCK) of over 50 µM.
COc1ccc(C2NC(=O)NC3=C2CSc2ccccc23)cc1F (centres unmarked) [compound 22523] gave an EC50 [1, 3] of 0.76 µM, an EC50 [1, 4] of 0.55 µM and an IC50 ([2]; Canis lupus familiaris, MDCK) of over 50 µM.
With COc1ccc(C2NC(=O)N(Cl)C3=C2CCc2ccccc23)cc1Br (centres unmarked) [compound 22707] the EC50 [1, 3] was 0.192 µM, the EC50 [1, 4] was 0.186 µM and the IC50 ([2]; Canis lupus familiaris, MDCK) was over 50 µM.
In the case of COc1cc(C2NC(=O)NC3=C2CCc2ccccc23)ccc1O (centres unmarked) [compound 22408], the EC50 [1, 3] is reported as over 50 µM, the EC50 [1, 4] is reported as over 50 µM and the IC50 ([2]; Canis lupus familiaris, MDCK) is reported as over 50 µM.
For Cn1c2c(c(-c3ccc4c(c3)OCO4)nc1=O)CCc1ccccc1-2 [compound 22403], the EC50 [1, 3] was 5.2 µM, the EC50 [1, 4] was 1.7 µM and the EC50 [1, 5] was 5.7 µM. It also gave an EC50 ([1]; read-out: H5N1 EC50 (Inf Pt)) of 2 µM and an IC50 ([2]; Canis lupus familiaris, MDCK) of over 50 µM.
COc1ccc(C2NC(=O)NC3=C2CN(C(=O)CN)c2ccccc23)cc1Br (centres unmarked) [compound 24716] showed an EC50 [1, 3] of 3.1 µM, an EC50 [1, 4] of 3.1 µM and an IC50 ([2]; Canis lupus familiaris, MDCK) of over 40 µM.
For O=C1NC2=C(CCc3ccccc32)C(c2cc(Br)c(O)c(Br)c2)N1 (centres unmarked) [compound 22702], the EC50 [1, 3] was over 40 µM, the EC50 [1, 4] was over 40 µM and the IC50 ([2]; Canis lupus familiaris, MDCK) was over 40 µM.
Work on O=C1NC2=C(CCc3ccccc32)C(c2cccc3c2OCO3)N1 (centres unmarked) [compound 22411] yielded an EC50 [1, 3] of over 50 µM, an EC50 [1, 4] of over 50 µM and an IC50 ([2]; Canis lupus familiaris, MDCK) of over 50 µM.
For COc1ccc(C2NC(=O)NC3=C2CCN(C(C)=O)c2ccccc23)cc1Br (centres unmarked) [28000A], the EC50 [1, 3] was over 20 µM.
For CCOC(=O)N1CC2=C(NC(=O)NC2c2ccc(OC)c(Br)c2)c2ccccc21 (centres unmarked) [compound 25577], the EC50 [1, 3] was over 20 µM and the EC50 [1, 4] was over 20 µM.
COc1ccc(C2NC(=O)NC3=C2CCN(C(=O)CO)c2ccccc23)cc1Br (centres unmarked) [28001A] showed an EC50 [1, 3] of over 20 µM.
